The source made the active and inactive calls. The calls are words filed in the database; no cut-off is given here.
Key:
[1] = target: T1, C-C chemokine receptor type 3 (Homo sapiens) (UniProt P51677); experiment: Binding affinity to CCR3 receptor (unknown origin)
T1 sequence (whole entry): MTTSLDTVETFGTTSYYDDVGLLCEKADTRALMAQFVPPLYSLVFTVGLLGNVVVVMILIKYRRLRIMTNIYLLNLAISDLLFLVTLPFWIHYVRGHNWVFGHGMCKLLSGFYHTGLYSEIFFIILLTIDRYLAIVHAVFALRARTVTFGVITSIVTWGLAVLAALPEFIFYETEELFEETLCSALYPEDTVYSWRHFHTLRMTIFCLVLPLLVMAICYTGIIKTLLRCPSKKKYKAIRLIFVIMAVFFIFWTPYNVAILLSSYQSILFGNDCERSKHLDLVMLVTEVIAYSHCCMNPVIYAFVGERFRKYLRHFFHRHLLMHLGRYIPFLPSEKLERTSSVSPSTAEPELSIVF

[2] = target: T2, C-X-C chemokine receptor type 2 (Homo sapiens) (UniProt P25025); experiment: Binding affinity to CXCR2 receptor (unknown origin)
T2 sequence (whole entry): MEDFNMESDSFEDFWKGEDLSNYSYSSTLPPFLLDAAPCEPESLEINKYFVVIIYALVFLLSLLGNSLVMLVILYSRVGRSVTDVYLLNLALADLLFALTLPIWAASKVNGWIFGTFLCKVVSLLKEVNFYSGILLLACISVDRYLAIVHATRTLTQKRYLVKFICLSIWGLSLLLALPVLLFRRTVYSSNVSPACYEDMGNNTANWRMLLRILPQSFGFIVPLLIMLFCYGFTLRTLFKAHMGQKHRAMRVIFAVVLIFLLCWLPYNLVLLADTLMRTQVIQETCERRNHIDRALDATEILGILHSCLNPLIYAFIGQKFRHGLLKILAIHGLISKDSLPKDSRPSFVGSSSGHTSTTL

[3] = target: Voltage-gated inwardly rectifying potassium channel KCNH2 (Homo sapiens, UniProt Q12809); experiment: Inhibition of human ERG
[4] = Metabolic stability in rat liver microsomes assessed as compound remaining at 0.5 uM after 60 mins by UV-LC/MS analysis; assay type: ADME; details: read-out: Stability
[5] = target: C-C chemokine receptor type 5 (Homo sapiens) (UniProt P51681); experiment: Binding affinity to CCR5 receptor (unknown origin)
[6] = Bioavailability in cynomolgus monkey at 5 mg/kg; assay type: ADME, organism-based, Macaca fascicularis; details: in vivo
[7] = Metabolic stability in human liver microsomes assessed as compound remaining at 0.5 uM after 60 mins by UV-LC/MS analysis; assay type: ADME; details: read-out: Stability
[8] = target: T3, Nuclear receptor subfamily 1 group I member 2 (Homo sapiens, UniProt O75469); experiment: Transactivation of human full-length PXR transfected in human HepG2 cells after 24 hrs by luciferase reporter gene assay; assay type: cell-based
T3 sequence (O75469 whole entry): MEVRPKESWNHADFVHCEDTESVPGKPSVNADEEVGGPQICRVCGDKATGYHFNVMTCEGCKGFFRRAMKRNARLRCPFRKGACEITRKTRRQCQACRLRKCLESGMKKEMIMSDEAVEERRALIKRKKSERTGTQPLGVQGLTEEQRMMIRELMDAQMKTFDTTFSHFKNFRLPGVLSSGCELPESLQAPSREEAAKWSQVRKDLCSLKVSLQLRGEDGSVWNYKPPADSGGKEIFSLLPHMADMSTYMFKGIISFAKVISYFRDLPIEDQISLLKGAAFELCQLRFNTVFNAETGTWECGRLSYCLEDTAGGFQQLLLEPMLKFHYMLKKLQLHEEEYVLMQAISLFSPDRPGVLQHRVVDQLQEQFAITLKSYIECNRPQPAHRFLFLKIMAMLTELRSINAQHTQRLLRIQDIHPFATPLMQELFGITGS

Chain of Voltage-gated inwardly rectifying potassium channel KCNH2 (Q12809 whole entry): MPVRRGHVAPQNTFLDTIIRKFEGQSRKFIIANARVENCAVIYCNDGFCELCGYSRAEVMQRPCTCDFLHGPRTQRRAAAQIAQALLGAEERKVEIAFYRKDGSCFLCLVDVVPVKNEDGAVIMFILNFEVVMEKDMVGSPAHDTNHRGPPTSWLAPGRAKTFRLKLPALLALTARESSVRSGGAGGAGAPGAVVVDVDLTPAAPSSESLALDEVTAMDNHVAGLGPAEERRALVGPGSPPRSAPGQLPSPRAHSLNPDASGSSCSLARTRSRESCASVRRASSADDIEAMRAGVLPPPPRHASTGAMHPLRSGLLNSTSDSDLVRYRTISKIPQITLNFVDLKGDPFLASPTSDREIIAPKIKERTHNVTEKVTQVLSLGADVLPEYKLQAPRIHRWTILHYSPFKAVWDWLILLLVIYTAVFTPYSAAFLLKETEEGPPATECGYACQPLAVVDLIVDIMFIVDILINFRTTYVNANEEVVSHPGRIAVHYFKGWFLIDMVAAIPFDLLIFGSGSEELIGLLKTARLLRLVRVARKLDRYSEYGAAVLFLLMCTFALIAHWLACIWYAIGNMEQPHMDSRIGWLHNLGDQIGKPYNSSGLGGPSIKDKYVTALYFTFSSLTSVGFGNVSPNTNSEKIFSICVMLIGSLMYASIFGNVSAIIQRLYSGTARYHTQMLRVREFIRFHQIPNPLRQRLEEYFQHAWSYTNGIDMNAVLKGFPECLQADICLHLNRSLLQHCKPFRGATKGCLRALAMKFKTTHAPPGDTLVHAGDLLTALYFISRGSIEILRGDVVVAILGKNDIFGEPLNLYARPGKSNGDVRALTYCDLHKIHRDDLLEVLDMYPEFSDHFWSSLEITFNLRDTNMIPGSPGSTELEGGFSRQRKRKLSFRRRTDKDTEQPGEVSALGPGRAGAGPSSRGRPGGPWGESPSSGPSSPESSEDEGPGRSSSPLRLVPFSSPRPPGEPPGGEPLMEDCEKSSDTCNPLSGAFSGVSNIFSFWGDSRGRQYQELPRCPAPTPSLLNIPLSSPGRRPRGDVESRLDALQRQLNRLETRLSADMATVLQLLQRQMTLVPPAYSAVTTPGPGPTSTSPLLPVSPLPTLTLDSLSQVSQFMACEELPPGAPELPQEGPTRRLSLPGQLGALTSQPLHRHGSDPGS
Chain of C-C chemokine receptor type 5 (Homo sapiens) (P51681 whole entry, looked up): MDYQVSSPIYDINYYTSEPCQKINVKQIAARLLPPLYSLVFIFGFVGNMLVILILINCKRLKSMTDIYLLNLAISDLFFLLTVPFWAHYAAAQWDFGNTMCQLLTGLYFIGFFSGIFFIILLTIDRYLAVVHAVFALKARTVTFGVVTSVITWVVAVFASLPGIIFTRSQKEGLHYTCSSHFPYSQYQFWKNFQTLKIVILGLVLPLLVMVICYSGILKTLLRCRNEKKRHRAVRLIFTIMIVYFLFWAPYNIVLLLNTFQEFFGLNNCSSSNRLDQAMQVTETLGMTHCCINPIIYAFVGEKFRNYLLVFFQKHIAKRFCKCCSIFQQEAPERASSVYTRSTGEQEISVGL

CC(C)[C@@H](NC(=O)NCC(C)(C)O)C(=O)N1CC[C@](O)(c2ccc(Cl)cc2)C(C)(C)C1 [BMS-817399]
Activity [1]: inactive | Activity [2]: inactive | inhibition (INH) [3]: Not Active | remaining at 1 h, 0.5 µM [4]: 74% | Activity [5]: inactive | bioavailability [6]: 40% | remaining at 1 h, 0.5 µM [7]: 100% | EC50 [8]: > 25 µM
